Assay [1] has as its system acoustic trauma induced hearing loss. Briefly: Auditory brainstem response (ABR) thresholds after acoustic trauma. In kind it is in vivo, Wistar rats. How it is done:
(§1) All experiments were performed using 7 week old male Wistar rats (CERJ, Le Genest, France) in accordance with the French Ministry of Agriculture regulations and European Community Council Directive no. 86/609/EEC, OJL 358. The rats were fed a standard diet ad libitum and maintained on a 12 h light-dark cycle.
(§2) Auditory Brainstem Reponses (ABR) and Distortion Product Otoacoustic Emissions (DPOAE) were recording using a RZ6 Auditory Workstation (Tucker-Davis Technologies, Alachua, FL, USA) with animals deeply anesthetized using 90 mg/kg ketamine and 10 mg/kg xylazine and placed on a 35° C. recirculating heating pad inside a sound attenuating cubicle (Med Associates Inc., St. Albans, VT, USA) throughout the experiment.
For ABR recordings, three stainless steel needle electrodes were placed subdermally over the vertex, the right mastoid and right hind leg of each animal. Tone-pips (5 msec duration presented at a rate of 21/s) at 8, 16 and 24 kHz were delivered to the right ear using a calibrated MF-1 speaker in closed-field configuration (Tucker-Davis Technologies, Alachua, FL, USA) at attenuating intensity until no reproducible response could be recorded. Close to the ABR threshold, the responses to 1000 acoustic stimuli in 5 dB steps were averaged. Responses were low-pass filtered at 3 kHz.
(§3) Animals were exposed to 121 dB octave band noise (8-16 kHz) for 2 h in groups of 4 rats, placed in individual compartments of a custom built circular cage placed on a 30 cm diameter platform rotating at 3 turns/minute (Aqila Innovation, Valbonne, France). The calibrated octave band noise generated by the RZ6 SigGen software was further amplified by a Crown D-75 amplifier in bridge mode (Crown Audio, Elkhart, IN, USA) and delivered by four Beyma CP16 compression tweeters (Acustica Beyma S. L., Moncada, Valencia, Spain) positioned 39 cm above the rotating platform, each 10 cm from the platform center.
(§4) Animals were treated by intraperitoneal injection daily for 14 days beginning immediately after acoustic trauma induction and subsequently repeated every 24 hours. The setron compounds granisetron HCl, ondansetron HCl, tropisetron HCl and azasetron HCl (Tocris Bioscience, Bristol, UK) were delivered dissolved in saline solution (1.6 mL/kg) while Tacrolimus (Selleck Chemicals, Houston, TX, USA) was dissolved in solution composed of 10% ethanol-100%/10% Kolliphor EL/1% Tween 80/79% saline (1.0 mL/kg). Placebo treated animals received injections of 1.6 mL/kg saline following the same treatment schedule.
(§5) Statistical analysis was performed using two-way ANOVA (Audiometry data: frequency and treatment group. Cochleograms: normalized distance from apex and treatment group) followed by Holm-Sidak post-hoc test for multiple comparisons. Results are given as mean±SEM and a p value less than or equal to 0.05 considered significant.
(§6) Baseline line audiometry (ABR and DPOAE measures) was performed for each animal 3 days before acoustic trauma was induced. Subsequently, audiometry measures were repeated 24 h and 14 days after acoustic trauma.
(§7) To quantify and compare the difference in treatment effects between groups while taking into account individual baseline and trauma variability, the hearing loss (ABR threshold shift & DPOAE amplitude loss) at D14 relative to baseline, as well as the functional recovery of hearing from 24 h to D14 (ABR threshold shift & DPOAE amplitude loss) were determined for all treatment groups.

For assay [2] the test system is unchanged. Briefly: Distortion product otoacoustic emissions (DPOAE) amplitudes after acoustic trauma. The format is in vivo, Wistar rats. The procedure: as §1, §2
DPOAEs were recorded and using ER10B+ Low Noise DPOAE microphone (Etymotic Research, Inc., Elk Grove Village, IL, USA) with acoustic stimuli delivered by two calibrated MF-1 speakers in closed-field configuration (Tucker-Davis Technologies, Alachua, FL, USA). DPOAEs were recorded at fixed stimulus levels (L1=L2=70 dB SPL), with an f2/f1 ratio of 1.2. Responses were recorded at 4, 8, 16, 24 and 32 kHz.
as §3, §4, §5, §6, §7

The mark [3] stands for this setting: day 14, i.p. daily for 14 days after acoustic trauma.
[4] abbreviates: i.p. daily for 14 days after acoustic trauma, same doses as E4.

Each structure is given as a SMILES string. Where a name gives a salt, the structure may show the parent alone.

As for `CN1C(=O)COc2c(C(=O)NC3CN4CCC3CC4)cc(Cl)cc21` (centres unmarked) [azasetron HCl, N-(1-azabicyclo[2.2.2]octan-8-yl)-6-chloro-4-methyl-3-oxo-1,4-benzoxazine-8-carboxamide], the “reduction of ABR threshold shifts compared to placebo treatment” value in assay [1] (setting [3]) is given as 35-60%. Further, in assay [1] (setting [4]), the “ABR threshold recovery from 24 h to day 14 compared to placebo” value is on record as “better ABR threshold recovery”; the “hearing outcomes (ABR thresholds and DPOAE amplitudes) at 14 days after acoustic trauma compared to placebo” value is given as “better hearing outcomes across all frequencies”. Moreover, the “ABR threshold shift from baseline to day 14 compared to placebo” value in assay [1] (i.p. daily for 14 days from immediately after 121 dB trauma, azasetron HCl 4.22, ondansetron HCl 4, tropisetron HCl 3.5, granisetron HCl 3.8, Tacrolimus 1.5 mg/kg) is recorded as “significantly lower ABR threshold shifts”. For the same compound, the “ABR threshold improvement graded by typical clinical audiological criteria (Furuhashi et al. 2002)” value in assay [1] (placebo group only "slight improvement") is on record as “marked improvement to complete recovery”. The “reduction of DPOAE amplitudes loss compared to placebo treatment” value in assay [2] (setting [3]) is reported as ~ 60%. Besides, in assay [2] (setting [4]), the “DPOAE amplitude loss from baseline to day 14 compared to placebo” value is “significantly reduced loss of DPOAE amplitudes” and the “recovery of DPOAE amplitudes from 24 h post trauma to day 14 compared to placebo” value was “significantly improved recovery of DPOAE amplitudes”.

Source of the values: patent US12702671B2, “Calcineurin inhibitors of the setron family for the treatment of hearing loss” (SENSORION, priority 2015, dated 2026).
